Data: patent US9815787B2, “Sulfonamide derivative or pharmaceutically acceptable acid addition salt thereof” (UNIVERSITY OF TSUKUBA, priority 2013, dated 2017)

Target: T1, OX2R (Homo sapiens, UniProt O43614)
T1 construct: expressed in transfected cells; host or cells: CHO (Chinese hamster ovary) cells constitutively expressing the OX2R gene and NFAT-luciferase (CHOOX2R)
T1 sequence (O43614 1-444): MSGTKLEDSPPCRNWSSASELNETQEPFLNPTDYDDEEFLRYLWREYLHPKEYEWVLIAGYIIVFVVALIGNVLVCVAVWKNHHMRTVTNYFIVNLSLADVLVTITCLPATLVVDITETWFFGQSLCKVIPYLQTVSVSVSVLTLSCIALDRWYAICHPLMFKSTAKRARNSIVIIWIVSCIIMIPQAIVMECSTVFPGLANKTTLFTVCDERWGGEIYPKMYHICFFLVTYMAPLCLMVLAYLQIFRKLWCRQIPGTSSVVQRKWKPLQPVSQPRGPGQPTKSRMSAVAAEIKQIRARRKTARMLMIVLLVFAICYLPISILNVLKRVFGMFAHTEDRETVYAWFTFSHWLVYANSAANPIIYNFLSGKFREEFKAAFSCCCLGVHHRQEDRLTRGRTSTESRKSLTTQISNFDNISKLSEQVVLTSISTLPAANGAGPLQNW
Experiment: Evaluation of agonist activity against OX2R (CHOOX2R cells, Fura2AM fluorescence, FDSS3000)
Format: cell-based
In short: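 CHO cells stably expressing human OX2R (and NFAT-luciferase), cultured 48 h in 5% FBS DMEM. Agonist response read as change in Fura2AM fluorescence on compound addition in HEPES buffer. Final compound concentrations 0.1, 1.0 or 10 μM; 1% DMSO.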

[1] = test compound 0.1 μM; CHOOX2R cells; relative to orexin-A as full agonist (100%)
[2] = test compound 1.0 μM; CHOOX2R cells; relative to orexin-A as full agonist (100%)
[3] = test compound 10 μM; CHOOX2R cells; relative to orexin-A as full agonist (100%)
[4] = test compound 0.1 μM; relative to orexin-A as full agonist (100%); CHOOX2R cells
[5] = test compound 1.0 μM; relative to orexin-A as full agonist (100%); CHOOX2R cells
[6] = test compound 10 μM; relative to orexin-A as full agonist (100%); CHOOX2R cells

| Response (0.1 μM (%)) [1] [%] | Response (1.0 μM (%)) [2] [%] | Response (10 μM (%)) [3] [%] | EC50 (OX2R agonist activity; CHOOX2R cells) [nM] | Emax (conversion with orexin-A as full agonist (maximum agonist activity 100%)) [%] | Response (0.1 μM (%)) [4] [%] | Response (1.0 μM (%)) [5] [%] | Response (10 μM (%)) [6] [%] | Compound |
| --- | --- | --- | --- | --- | --- | --- | --- | --- |
| <5 | <5 | 22 | – | – | – | – | – | COc1cccc(-c2ccc(OC)c(S(=O)(=O)Nc3cccc(NCCNC(=O)c4ccccc4OC)c3)c2)n1 [Example 94, 2-methoxy-N-(2-((3-(2-methoxy-5-(6-methoxypyridin-2-yl)phenylsulfonamido)phenyl)amino)ethyl)benzamide] |
| <5 | <5 | 30 | – | – | – | – | – | COc1cccc(C(=O)NCCNc2cccc(NS(=O)(=O)c3cc(-c4cccc(OC)n4)ccc3OC)c2)c1 [Example 95, 3-methoxy-N-(2-((3-(2-methoxy-5-(6-methoxypyridin-2-yl)phenylsulfonamido)phenyl)amino)ethyl)benzamide] |
| <5 | 61 | 88 | 268 | 88 | – | – | – | COc1ccccc1C(=O)NCCNc1cccc(NS(=O)(=O)c2cc(-c3cccnc3)ccc2OC)c1 [Example 96, 2-methoxy-N-(2-((3-(2-methoxy-5-(pyridin-3-yl)phenylsulfonamido)phenyl)amino)ethyl)benzamide] |
| <5 | 12 | 37 | – | – | – | – | – | COc1cncc(-c2ccc(OC)c(S(=O)(=O)Nc3cccc(NCCNC(=O)c4ccccc4OC)c3)c2)c1 [Example 97, 2-methoxy-N-(2-((3-(2-methoxy-5-(5-methoxypyridin-3-yl)phenylsulfonamido)phenyl)amino)ethyl)benzamide] |
| – | – | – | – | – | <5 | 22 | 91 | COc1cccc(C(=O)NCCNc2cccc(NS(=O)(=O)c3cc(-c4cncc(OC)c4)ccc3OC)c2)c1 [Example 98, 3-methoxy-N-(2-((3-(2-methoxy-5-(5-methoxypyridin-3-yl)phenylsulfonamido)phenyl)amino)ethyl)benzamide] |

Continued, compound first:

| Compound | Response (0.1 μM (%)) [1] [%] | Response (1.0 μM (%)) [2] [%] | Response (10 μM (%)) [3] [%] | EC50 (OX2R agonist activity; CHOOX2R cells) [nM] | Emax (conversion with orexin-A as full agonist (maximum agonist activity 100%)) [%] | Response (0.1 μM (%)) [4] [%] | Response (1.0 μM (%)) [5] [%] | Response (10 μM (%)) [6] [%] |
| --- | --- | --- | --- | --- | --- | --- | --- | --- |
| COc1cccc(C(=O)NCCNc2cccc(NS(=O)(=O)c3cc(-c4ncccc4F)ccc3OC)c2)c1 [Example 93, N-(2-((3-(5-(3-fluoropyridin-2-yl)-2-methoxyphenylsulfonamido)phenyl)amino)ethyl)-3-methoxybenzamide] | <5 | 33 | 73 | – | – | – | – | – |
| COc1cc(C)c(-c2cccc(C(=O)N(C)C)c2)cc1S(=O)(=O)Nc1cccc(NCCNC(=O)c2cccc(F)c2)c1 [Example 102, 5′-(N-(3-((2-(3-fluorobenzamido)ethyl)amino)phenyl)sulfamoyl)-4′-methoxy-N,N,2′-trimethyl-[1,1′-biphenyl]-3-carboxamide] | – | – | – | – | – | 61 | 83 | 85 |
| COc1cc(C)c(-c2cccc(C(=O)N(C)C)c2)cc1S(=O)(=O)Nc1cccc(NCCNC(=O)c2cccnc2OC)c1 [Example 103, N-(2-((3-(3′-(dimethylcarbamoyl)-4-methoxy-6-methyl-[1,1′-biphenyl]-3-ylsulfonamido)phenyl)amino)ethyl)-2-methoxynicotinamide] | – | – | – | – | – | 77 | 93 | 80 |
| COc1cc(C)c(-c2cccc(C(=O)N(C)C)c2)cc1S(=O)(=O)Nc1cccc(NCCNC(=O)c2ccccc2Cl)c1 [Example 104, 5′-(N-(3-((2-(2-chlorobenzamido)ethyl)amino)phenyl)sulfamoyl)-4′-methoxy-N,N,2′-trimethyl-[1,1′-biphenyl]-3-carboxamide] | – | – | – | – | – | 67 | 88 | 86 |
| COc1cc(C)c(-c2cccc(C(=O)N(C)C)c2)cc1S(=O)(=O)Nc1cccc(NCCNC(=O)c2sccc2Cl)c1 [Example 105, 3-chloro-N-(2-((3-(3′-(dimethylcarbamoyl)-4-methoxy-6-methyl-[1,1′-biphenyl]-3-ylsulfonamido)phenyl)amino)ethyl)thiophene-2-carboxamide] | – | – | – | – | – | 78 | 84 | 79 |
